Measured values: PMC5856786, “A DHODH inhibitor increases p53 synthesis and enhances tumor cell killing by p53 degradation blockage” (Nature Communications, 2018)

How the values were obtained:
HNDF cells = assay: MTT growth/viability assay, HNDF; format: cell-based, human; details: 72 h
Protocol: MTT assays were performed in 96 well plates. After treatments, medium was replaced with 200 μL of MTT solution (3 mg mL^−1 MTT (Sigma #M2128) in PBS diluted 1:5 in growth medium). […] Volume of 200 μL DMSO per well were added and plates were read at 570 nm.

[1] = test system: p53 and p53-induced proteins in ARN8 cells; assay: Western blotting of p53, hdm2 and p21 levels; format: cell-based, human; details: ARN8 melanoma cells
Protocol: Levels of p53, as well as downstream targets hdm2 (human mdm2) and p21 were determined. Levels of gapdh were used to monitor protein loading. e ARN8 or HNDF cells were treated with the indicated compound concentrations for 72 h and subjected to MTT assays. […] Incorporation of ^35S in the p53 immunoprecipitate was determined by autoradiography. The experiment is shown in duplicate
Protein extracts were prepared in 1× LDS sample buffer (Invitrogen) with 100 mM DTT and separated and transferred using the Invitrogen western blotting system except in Supplementary Fig. 1c where the BioRad western blotting system was used. HRP-conjugated secondary antibodies were obtained from Dako (#P016102 and #P0211702) or Santa Cruz (#SC-2020). Immunofluorescence was performed by fixing cells in 4% paraformaldehyde freshly made in PBS for 10 min at 37 °C. Following fixation, cells were permeabilized in 0.15% Triton X-100 for 1–2 min at 37 °C followed by staining with the indicated antibodies. Images were taken using Olympus IX-71 microscope controlled by DeltaVision SoftWoRx. Image stacks were deconvolved, quick-projected and saved as tiff images to be processed using Adobe Photoshop. Antibodies to specific antigens are listed in Supplementary Table 8. All original films for blots in Fig. 1 are shown in Supplementary Figs. 9–12.

human mdm2 (hdm2) = target: T1, human mdm2 (hdm2) (Homo sapiens, UniProt Q00987); assay: hdm2 binding (CETSA in ARN8 extracts; ELISA with IP3 peptide); details: CETSA at 100 μM
T1 construct: ARN8 soluble cell extracts were prepared for the cellular thermal shift assay (CETSA); endogenous in cells; host or cells: ARN8 human melanoma cells (soluble extract)
Protocol: (§1) Levels of gapdh were used to monitor protein loading. e ARN8 or HNDF cells were treated with the indicated compound concentrations for 72 h and subjected to MTT assays. […] Incorporation of ^35S in the p53 immunoprecipitate was determined by autoradiography. The experiment is shown in duplicate
(§2) corresponds to residues 17−26 of wild-type p53) was determined by ELISA (See
(§3) supplementary information9). The percentage hdm2/hdmx bound to IP3 relative to the vehicle
(§4) upon which cycloheximide (CHX) (10 µg mL-1) was added for the indicated periods of time. […]

p53-null H1299 cells = assay: p53 reporter (CPRG assay) in p53-null H1299 cells transfected with RGCΔFosLacZ; format: cell-based; details: H1299, 16 h exposure
Protocol: Supplementary Figure 1. HZ compounds increase the levels of p53-induced mRNAs. a) p53-null H1299 cells were transfected with the RGCΔ FosLacZ reporter construct and levels of p53-dependent transcription were determined by CPRG assay following a 16 h exposure to HZ00. A vector expressing wild-type p53 was used as a positive control. The average of three […]
for 1 hour prior to treatment with 2 µM nutlin-3 for an additional 18 hours. Levels of p53-induced mRNAs and p53 mRNA were determined by q-RT-PCR. tbp was used as a control.
Values correspond to the average of three technical repeats with standard deviation used for error. RNA extraction and q-RT-PCR were performed as previously described - see supplementary information7. c) HCT116 p53 wild-type or p53 deficient cells were treated […]
supplementary information for cell line description8. d) ARN8 cells treated for 6 hours with HZ00 at indicated doses. Levels of p53 mRNA were determined by q-RT-PCR. […]

lipid kinases = assay: ADP-Glo kinase assays, panel of 16 lipid kinases (Supplementary Table 3); format: biochemical
Excerpt: Supplementary Table 3. In vitro inhibition (% remaining activity) of lipid […]
kinases using ADP-Glo™ kinase assays (Promega) according to manufacturer ’s instructions (International Centre for Kinase Profiling, Dundee, UK).
(1 picture or pasted object on this page, not shown here)

p53 in ARN8 cells = assay: p53 synthesis assay (35S-Met-Cys pulse labeling, p53 immunoprecipitation); format: cell-based, human; details: 20 μM, within 6 h of treatment
Protocol: ARN8 cells were seeded at 2.5 × 10^6 cells per 10 cm dish. […] After 5.5 h, medium was substituted for Met- and Cys-deprived DMEM, supplemented with 5 μM nutlin-3, 0.5% FBS and 4 mM L-glutamine for 20 min in the presence of the corresponding compounds. ^35S-Met-Cys (50 μCi mL^−1) was added for 30 min. […] Samples were centrifuged at 16,000×g for 15 min at 4 °C. Volume of 30 µL of each supernatant was stored as input. The remaining supernatants were incubated with 5 µg anti-p53 DO-1 antibody and rotated overnight at 4 °C. Samples were transferred to Dynabeads Protein G (# D10004D, Life Technologies) and rotated for 30 min at RT. Samples were centrifuged briefly for 10 s and placed in front of a magnet. […] Pellets were resuspended in 3× LDS containing 100 mM DTT. Samples were separated by SDS-PAGE and the gels were incubated in enhancer solution (#6NE9741, PerkinElmer), dried and exposed to Carestream Kodak BioMax MR films at −80 °C.

human mdmx (hdmx) = target: T2, human mdmx (hdmx) (Homo sapiens, UniProt O15151); assay: hdmx binding (CETSA in ARN8 extracts; ELISA with IP3 peptide); details: CETSA at 100 μM
T2 construct: ARN8 soluble cell extracts were prepared for the cellular thermal shift assay (CETSA); endogenous in cells; host or cells: ARN8 human melanoma cells (soluble extract)
Protocol: as §1, §2, §3, §4

U2OS cells = assay: PI flow cytometry, sub-G1 cells, U2OS; format: cell-based
Protocol: Cell cycle distribution analysis was performed on a Becton Dickinson FACScan flow cytometer or FACSCalibur (BD Biosciences) following staining with propidium iodide (PI) or dual labeling with BrdU and PI[36]. These assays were analyzed using CellQuest Pro (BD Biosciences).

[2] = test system: p53 levels in S-phase U2OS cells; assay: p53-FITC/DNA content flow cytometry; format: cell-based; details: HZ05 1 μM, 72 h
Protocol: The upper left panel is a representative dot plot showing the gating strategy for cells expressing high p53 levels (blue: […] DMSO treated). […] A representative histogram of the fluorescence intensity of FITC-p53 in S-phase cells is shown in the lower right panel. Bar graphs show the average of three independent experiments. […] After an additional 48 h, Annexin V and PI staining was analyzed by flow cytometry. […] Inhibition of p53 degradation in the form of an mdm2 antagonist leads to death of cells in S-phase For the detection of p53, cells were treated as indicated and fixed using Fix/Perm buffer solution (eBiosciences). […] Cells were resuspended in FACS buffer (2 mM EDTA, 0.5% BSA) containing 2 μg mL^−1 FxCycle Violet (Thermo Scientific). Stained cells were acquired on LSRII (BD Biosciences) and analyzed using FlowJo software V10.2.

T1 sequence (Q00987 whole entry): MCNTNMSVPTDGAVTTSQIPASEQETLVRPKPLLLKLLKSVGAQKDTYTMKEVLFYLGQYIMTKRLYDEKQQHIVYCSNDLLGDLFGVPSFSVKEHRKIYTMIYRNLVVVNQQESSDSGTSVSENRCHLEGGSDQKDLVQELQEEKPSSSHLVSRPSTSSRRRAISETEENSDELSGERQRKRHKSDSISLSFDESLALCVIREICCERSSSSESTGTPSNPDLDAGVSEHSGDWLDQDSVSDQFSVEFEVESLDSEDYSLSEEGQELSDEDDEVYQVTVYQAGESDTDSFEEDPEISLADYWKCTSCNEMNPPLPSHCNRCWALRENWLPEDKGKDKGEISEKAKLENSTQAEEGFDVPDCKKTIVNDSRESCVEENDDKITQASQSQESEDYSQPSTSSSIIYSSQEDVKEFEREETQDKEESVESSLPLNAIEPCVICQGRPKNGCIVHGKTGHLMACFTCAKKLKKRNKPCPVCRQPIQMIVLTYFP
T2 sequence (O15151 whole entry): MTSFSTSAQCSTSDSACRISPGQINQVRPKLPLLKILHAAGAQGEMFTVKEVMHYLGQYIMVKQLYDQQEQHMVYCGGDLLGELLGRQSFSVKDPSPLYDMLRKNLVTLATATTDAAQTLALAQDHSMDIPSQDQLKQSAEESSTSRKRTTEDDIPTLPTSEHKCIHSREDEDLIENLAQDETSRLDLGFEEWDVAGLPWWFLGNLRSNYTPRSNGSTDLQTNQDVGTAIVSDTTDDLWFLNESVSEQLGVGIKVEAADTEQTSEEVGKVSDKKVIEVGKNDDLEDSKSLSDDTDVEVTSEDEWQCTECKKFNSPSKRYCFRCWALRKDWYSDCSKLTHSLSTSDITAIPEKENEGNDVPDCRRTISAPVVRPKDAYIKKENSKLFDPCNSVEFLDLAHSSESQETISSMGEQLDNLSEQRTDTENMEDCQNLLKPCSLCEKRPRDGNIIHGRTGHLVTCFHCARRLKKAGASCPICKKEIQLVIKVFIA

Compound | inhibitory effect on proliferation, HNDF versus ARN8 (HNDF cells) | levels of p53 and p53-induced proteins [1] | binding to human mdm2 (hdm2) (human mdm2 (hdm2)) | p53-reporter activity in p53-null cells (p53-null H1299 cells) | inhibition of lipid kinases (lipid kinases) | p53 synthesis (p53 in ARN8 cells) | binding to human mdmx (hdmx) (human mdmx (hdmx)) | sub-G1 cells (U2OS cells; HZ05 1 μM 72 h + 48 h, 2 μM nutlin-3a last 48 h) [%] | sub-G1 cells (U2OS cells; HZ05 1 μM 72 h + 48 h, DMSO last 48 h) [%] | sub-G1 cells (U2OS cells; HZ05 1 μM, 72 h treatment) [%] | sub-G1 cells (U2OS cells; HZ05 2.5 μM, 72 h treatment) [%] | p53 levels in S-phase cells [2]
O=C(NC1CCCc2c1cnn2-c1ccccc1F)c1ccccn1 (stereo not drawn) [HZ00] | lesser inhibitory effect on proliferation of HNDFs than on the growth of ARN8 cells | increased the levels of p53 and p53-induced proteins | does not bind | did not result in p53-reporter activity | did not detect inhibition | increase p53 synthesis | not detected | – | – | – | – | –
O=C(NC1CCCc2c1cnn2-c1ccccc1F)c1onc2c1CCCC2 (stereo not drawn) [HZ05] | – | – | – | – | – | – | – | 38.2 | 25.7 | 3.7 | 4.8 | higher levels of p53 than vehicle treated controls
